# Source: patent publication US20220218707A1, “USE OF COMPOSITION OF IMATINIB OR DERIVATIVE THEREOF IN PREPARATION OF DRUG FOR PREVENTING, TREATING, AND CONTROLLING ADDICTION RELAPSE” (Wuhan University, priority 2019, published 2022)
# Structures can show the parent of a compound that is named as a salt. Where two headings read alike, the source gives them in different places.
# Assays:
# c-Kit [1] = biological target: T1, c-Kit (Rattus norvegicus, UniProt F7EWK5); details: acute nicotine 0.5 mg/kg s.c.; not in other brain regions
# T1 sequence (F7EWK5 26-978): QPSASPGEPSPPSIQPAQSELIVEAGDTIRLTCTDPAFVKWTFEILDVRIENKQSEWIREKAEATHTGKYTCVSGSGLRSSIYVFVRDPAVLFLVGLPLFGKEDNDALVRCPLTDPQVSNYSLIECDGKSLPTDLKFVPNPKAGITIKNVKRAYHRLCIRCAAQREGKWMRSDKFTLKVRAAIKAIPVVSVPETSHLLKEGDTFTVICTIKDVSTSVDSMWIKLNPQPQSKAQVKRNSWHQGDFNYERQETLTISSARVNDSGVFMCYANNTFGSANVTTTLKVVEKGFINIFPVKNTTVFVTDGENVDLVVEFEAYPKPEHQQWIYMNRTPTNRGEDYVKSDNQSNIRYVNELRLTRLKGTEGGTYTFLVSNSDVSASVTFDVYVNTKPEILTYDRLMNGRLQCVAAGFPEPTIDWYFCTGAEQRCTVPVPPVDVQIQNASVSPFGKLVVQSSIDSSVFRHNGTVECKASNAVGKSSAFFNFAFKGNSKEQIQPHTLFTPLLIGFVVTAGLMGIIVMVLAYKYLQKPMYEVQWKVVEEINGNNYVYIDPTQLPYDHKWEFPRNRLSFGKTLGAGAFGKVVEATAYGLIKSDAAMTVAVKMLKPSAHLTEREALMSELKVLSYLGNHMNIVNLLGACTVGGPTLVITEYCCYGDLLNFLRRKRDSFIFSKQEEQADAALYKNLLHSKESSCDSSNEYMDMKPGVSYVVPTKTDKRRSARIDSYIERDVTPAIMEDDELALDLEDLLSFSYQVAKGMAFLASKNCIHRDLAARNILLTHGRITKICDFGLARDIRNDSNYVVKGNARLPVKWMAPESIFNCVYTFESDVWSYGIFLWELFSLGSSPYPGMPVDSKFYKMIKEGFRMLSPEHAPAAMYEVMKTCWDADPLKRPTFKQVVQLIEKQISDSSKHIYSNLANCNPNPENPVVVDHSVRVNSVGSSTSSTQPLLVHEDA
# SD rats [2] = tested on: SD rats
# Source text: Groups: A total of 14 groups (n=10) were included.
# The rest process was the same as that in Example 3.
# SD rats [3] = test: Morphine sensitization model (spontaneous activity); format: in vivo
# SD rats [4] = test: Ethanol sensitization model; format: in vivo; details: imatinib mesylate 15, 20, or 30 mg/kg
# SD rats [5] = test: Development of high-sugar and high-fat food-induced CPP; format: in vivo
# SD rats [6] = test: Nicotine withdrawal symptoms (spontaneous activity); format: in vivo
# Source text: Test instrument: Conditional place preference (CPP) test apparatus (the same as that in Example 19); and spontaneous activity detecting apparatus (developed by the Institute of Chinese Materia Medica, China Academy of Chinese Medical Sciences). The test was automatically controlled by a computer. The apparatus includes four spontaneous activity observation chamber, a video synthesizer, a video pattern sampling card, and analysis software. The system performs video tracking of the rat activity and automatically records the rat activity track and activity times. The spontaneous activity evaluation index is the total activity times in a certain period of time (such as 60 min), and an increase in the total activity times indicates an increase in spontaneous activity. […] In addition, a physiological saline+physiological saline group without nicotine treatment was used as the control group. […] After 60 min, a spontaneous activity detecting apparatus was used to detect the spontaneous activities.
# SD rats [7] = tested on: SD rats; remark: listed apart in the source
# SD rats [8] = tested on: SD rats; remark: listed apart in the source
# SD rats [9] = details: for drug-seeking behavior and relapse after cocaine addiction: imatinib mesylate 20 and 30 mg/kg
# SD rats [10] = tested on: SD rats; remark: listed apart in the source
# SD rats [11] = tested on: SD rats; remark: listed apart in the source
# SD rats [12] = details: direct administration; any dose of imatinib mesylate
# SD rats [13] = tested on: SD rats; remark: listed apart in the source
# SD rats [14] = details: imatinib mesylate 1, 5, 10, 20, and 30 mg/kg i.p.
# SD rats [15] = details: imatinib mesylate 1, 5, 10, 20, or 30 mg/kg i.p.
# SD rats [16] = details: for morphine tolerance and heat pain threshold in CFA rats: day 6 after model establishment
# [17] = Naloxone-precipitated withdrawal symptoms after morphine-induced CPP (jump times, body weight); details: imatinib mesylate 15, 30, and 45 mg/kg with morphine 5 mg/kg, naloxone 2 mg/kg s.c.; combination or compound preparation
# c-Kit [18] = biological target: T1, c-Kit; details: acute morphine 10 mg/kg s.c.; not in other brain regions
# c-Kit [19] = biological target: T1, c-Kit; details: acute ethanol administration
# [20] = imatinib mesylate 1, 5, and 10 mg/kg, ethanol 0.75 g/kg for training CPP
# [21] = imatinib mesylate 1 and 5 mg/kg, ethanol 0.5 g/kg for training CPP
# [22] = imatinib mesylate 10, 15, 20, and 30 mg/kg, ethanol 0.5 g/kg for training CPP
# [23] = imatinib mesylate 15, 20, and 30 mg/kg, ethanol 0.75 g/kg for training CPP
structure (smiles),measurement,setting,value
CN1CCCC1c1cccnc1 (centres unmarked) [nicotine],activation of c-kit receptor and downstream signaling molecules in neurons in nucleus accumbens,c-Kit [1],specifically activated
Cc1ccc(NC(=O)c2ccc(CN3CCN(C)CC3)cc2)cc1Nc1nccc(-c2cccnc2)n1 [imatinib mesylate],CPP (drug-seeking behavior) after ethanol addiction,SD rats [2]; [20],no obvious effect
same,CPP (drug-seeking behavior) after ethanol addiction,SD rats [2]; [21],no obvious effect
same,CPP (drug-seeking behavior) after ethanol addiction,SD rats [2]; [22],can significantly relieve CPP and prevent it from being primed
same,CPP (drug-seeking behavior) after ethanol addiction,SD rats [2]; [23],can significantly relieve CPP and prevent it from being primed
same,expression of morphine sensitization,SD rats [3]; imatinib mesylate 30 mg/kg i.p. on day 11 before morphine 5 mg/kg challenge,the expression of morphine sensitization in rats is inhibited
same,development of morphine sensitization,SD rats [3]; imatinib mesylate 30 mg/kg with morphine 10 mg/kg for 5 consecutive days,the development of morphine sensitization in rats is inhibited
same,development of ethanol sensitization,SD rats [4]; ethanol 0.75 g/kg for 5 consecutive days,the development of ethanol sensitization in rats is inhibited
same,expression of ethanol sensitization,SD rats [4]; ethanol challenge on day 11,the expression of ethanol sensitization in rats is inhibited
same,development of addiction to high-sugar and high-fat food (CPP),"SD rats [5]; imatinib mesylate 1, 5, and 10 mg/kg i.p.",no significant effect on the development of addiction to high-sugar and high-fat food
same,development of addiction to high-sugar and high-fat food (CPP),SD rats [5]; imatinib mesylate 20 and 30 mg/kg i.p.,can significantly inhibit the development of addiction to high-sugar and high-fat food
same,nicotine withdrawal symptoms (spontaneous activities),"SD rats [6]; imatinib mesylate 10, 20, and 30 mg/kg, addiction trained by 0.25 mg/kg of nicotine",can differently alleviate the withdrawal symptoms
same,nicotine withdrawal symptoms (spontaneous activities),"SD rats [6]; imatinib mesylate 20 and 30 mg/kg, addiction trained by 0.5 mg/kg of nicotine",can alleviate the withdrawal symptoms
same,development of ethanol-induced CPP,SD rats [7]; [20],no significant effect on the development of CPP
same,development of ethanol-induced CPP,SD rats [7]; [21],no significant effect on the development of CPP
same,development of ethanol-induced CPP,SD rats [7]; [22],can significantly relieve CPP
same,development of ethanol-induced CPP,SD rats [7]; [23],can significantly relieve CPP
same,CPP (drug-seeking behavior) after morphine addiction,"SD rats [8]; imatinib mesylate 1, 5, and 10 mg/kg i.p., morphine 10 mg/kg for training CPP",no obvious effect
same,CPP (drug-seeking behavior) after morphine addiction,"SD rats [8]; imatinib mesylate 1 and 5 mg/kg i.p., morphine 5 mg/kg for training CPP",no obvious effect
same,CPP (drug-seeking behavior) after morphine addiction,"SD rats [8]; imatinib mesylate 10, 20, and 30 mg/kg i.p., morphine 5 mg/kg for training CPP",can significantly relieve CPP and prevent it from being primed
same,CPP (drug-seeking behavior) after morphine addiction,"SD rats [8]; imatinib mesylate 20 and 30 mg/kg i.p., morphine 10 mg/kg for training CPP",can significantly relieve CPP and prevent it from being primed
same,priming (relapse) after cocaine addiction,SD rats [9]; direct administration of imatinib mesylate 20 and 30 mg/kg,the rats are still primed
same,drug-seeking behavior and relapse after cocaine addiction,SD rats [9]; unconditioned stimulus cocaine 3 mg/kg,can prevent the drug-seeking behavior and relapse
same,drug-seeking behavior and relapse after cocaine addiction,SD rats [9]; unconditioned stimulus cocaine 4 mg/kg,"can only inhibit the drug-seeking behavior, and cannot prevent relapse"
same,priming (relapse) after challenge with a small dose of ethanol,SD rats [10]; direct administration of imatinib mesylate,are all primed
same,"CPP after ethanol addiction, all treatment groups","SD rats [10]; imatinib mesylate 15 and 30 mg/kg, ethanol 0.75 g/kg for training CPP",can significantly reduce the CPP
same,drug-seeking behavior and relapse after ethanol addiction,"SD rats [10]; unconditioned stimulus ethanol 0.5 g/kg, imatinib mesylate 20 and 30 mg/kg","can only inhibit the drug-seeking behavior, and cannot prevent relapse"
same,priming with high-sugar and high-fat food after 1 week,"SD rats [11]; direct administration, all doses of imatinib mesylate",cannot prevent the rats from being primed
same,food-seeking behavior (CPP),"SD rats [11]; imatinib mesylate 10, 20, and 30 mg/kg, substance cue, environmental cue or direct administration",can inhibit the food-seeking behavior
same,gambling behavior (choice),SD rats [12],no significant effect
same,morphine tolerance (heat pain threshold),"SD rats [13]; 1, 5, and 10 mg/kg i.p., morphine 10 mg/kg s.c.",do not have this inhibitory effect
same,morphine tolerance (heat pain threshold),"SD rats [13]; 20 and 30 mg/kg i.p., morphine 10 mg/kg s.c.",can prevent the development of CPP
same,morphine tolerance (heat pain threshold),"SD rats [13]; 20 and 30 mg/kg i.p., morphine 10 mg/kg s.c., listed as Imatinib sulfonate",can significantly reduce the expression of morphine-induced tolerance
same,minimum dose of imatinib mesylate preventing morphine tolerance,SD rats [13]; dose ratio to morphine 2:1 or greater,10 mg/kg
same,morphine tolerance (heat pain threshold),"SD rats [13]; imatinib mesylate 10, 20, and 30 mg/kg, tolerance induced by 5 mg/kg morphine",can prevent the development of morphine tolerance
same,treatment and prevention of morphine tolerance,"SD rats [13]; low dose of 5 mg/kg, rats",can be used in the treatment and prevention of morphine tolerance in rats
same,"HPT, imatinib mesylate+physiological saline compared with physiological saline+physiological saline",SD rats [14],no obvious change
same,"heat pain threshold, imatinib mesylate+morphine compared with morphine+physiological saline",SD rats [14]; morphine 10 mg/kg s.c.,no obvious change
same,"hind paw licking time, imatinib mesylate+physiological saline compared with physiological saline+physiological saline",SD rats [15],no obvious changes
same,"hind paw licking time, imatinib mesylate+morphine compared with morphine+physiological saline",SD rats [15]; morphine 10 mg/kg s.c.,no obvious changes
same,morphine tolerance and heat pain threshold in CFA rats,"SD rats [16]; imatinib mesylate 1, 5, and 10 mg/kg",have no this effect
same,morphine tolerance and heat pain threshold in CFA rats,SD rats [16]; imatinib mesylate 20 and 30 mg/kg,can significantly prevent the development of morphine tolerance
same,"heat pain threshold, imatinib mesylate+morphine compared with morphine+physiological saline","SD rats [16]; days 4 and 5 after model establishment, morphine 10 mg/kg s.c.",no obvious change
same,"morphine withdrawal symptoms (jump times, changes in body weight)",[17],can alleviate the withdrawal symptoms
CN1CC[C@]23c4c5ccc(O)c4O[C@H]2[C@@H](O)C=C[C@H]3[C@H]1C5 [morphine],activation of c-kit receptor and downstream signaling molecules in neurons in nucleus accumbens,c-Kit [18],specifically activated
CNC1(C)C2CCC(C2)C1(C)C (centres unmarked) [mecamylamine],spontaneous activities of rats with nicotine addiction,"SD rats [6]; mecamylamine 0.5 mg/kg, withdrawal symptoms aroused",the spontaneous activities decreases significantly
CCO [ethanol],activation of c-kit receptor in neurons in nucleus accumbens,c-Kit [19],specifically activated
